Tests used:
U-698-M [1] = assay: Bliss excess, mean over the matrix (fraction); higher = more synergy; conditions: U-[…], B-Cell Non-Hodgkin's Lymphoma
Procedure, shortened: (§1)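 Cell lines in DMEM/F12 or RPMI with 10% FBS were plated in 1536-well plates, held 24 hours at 37°C, 5% CO2, then given two-drug dose matrices for 72 hours (DMSO typically 0.2%). Viability was read by CellTiter-Glo 2.0 luminescence and scaled as inhibition from 0 (vehicle wells) to 1 (blank wells). Combination Emax is the second-highest inhibition in the matrix; Bliss excess is observed combination effect minus expected EA + EB − EA·EB, EA and EB being single-agent effects.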

U-698-M [2] = assay: combination Emax (second highest fraction inhibited in the dose matrix, 72 h); higher = more inhibition; conditions: B-Cell Non-Hodgkin's Lymphoma
Procedure, shortened: as §1

[3] = first compound max 1 µM, partner max 10 µM, 7x7
[4] = first compound max 1 µM, partner max 3 µM, 7x7
[5] = first compound max 10 µM, partner max 1 µM
[6] = first compound max 10 µM, partner max 0.3 µM, 7x7
[7] = first compound max 1 µM, partner max 1 µM
[8] = first compound max 10 µM, partner max 10 µM, 7x7
[9] = first compound max 1 µM, partner max 1 µM, 7x7
[10] = first compound max 0.3 µM, partner max 10 µM, 7x7
[11] = first compound max 0.001 µM, partner max 10 µM, 7x7
[12] = first compound max 2 µM, partner max 1 µM, 7x7
[13] = first compound max 3 µM, partner max 3 µM
[14] = first compound max 10 µM, partner max 1 µM, 7x7
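Wherever Bliss excess, mean over the matrix is given: after 72 h of two-drug dosing.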

## CC1(C)CCC(CN2CCN(c3ccc(C(=O)NS(=O)(=O)c4ccc(NCC5CCOCC5)c([N+](=O)[O-])c4)c(Oc4cnc5[nH]ccc5c4)c3)CC2)=C(c2ccc(Cl)cc2)C1 [Venetoclax] + CS(=O)(=O)CCNCc1ccc(-c2ccc3ncnc(Nc4ccc(OCc5cccc(F)c5)c(Cl)c4)c3c2)o1 [Lapatinib]
U-698-M [1]; [3]
  Bliss excess: -0.0151
U-698-M [2]; [3]
  combination Emax: 0.503

## CN(CCO)CC[C@H](CSc1ccccc1)Nc1ccc(S(=O)(=O)NC(=O)c2ccc(N3CCC([C@@H](O)c4ccccc4-c4ccc(Cl)cc4)CC3)cc2)cc1S(=O)(=O)C(F)(F)F [AZD4320] + Cn1cnc2c(F)c(Nc3ccc(Br)cc3Cl)c(C(=O)NOCCO)cc21 [Selumetinib]
U-698-M [1]; [4]
  Bliss excess: 0.058
U-698-M [2]; [4]
  combination Emax: 0.42

## Cn1cnc2c(F)c(Nc3ccc(Br)cc3Cl)c(C(=O)NOCCO)cc21 [Selumetinib] + C=CCn1c(=O)c2cnc(Nc3ccc(N4CCN(C)CC4)cc3)nc2n1-c1cccc(C(C)(C)O)n1 [AZD1775]
U-698-M [1]; [5]
  Bliss excess: -0.0472
U-698-M [2]; [5]
  combination Emax: 0.892

## C=CCn1c(=O)c2cnc(Nc3ccc(N4CCN(C)CC4)cc3)nc2n1-c1cccc(C(C)(C)O)n1 [AZD1775] + C[C@@H]1COCCN1C2=NC(=NC(=C2)C3(CC3)[S@](=N)(=O)C)C4=C5C=CNC5=NC=C4 [AZD6738]
U-698-M [1]; first compound max 1 µM, partner max 10 µM
  Bliss excess: 0.0479
U-698-M [2]; first compound max 1 µM, partner max 10 µM, may be a limit of the assay
  combination Emax: 1

## COc1cc2ncnc(Nc3ccc(F)c(Cl)c3)c2cc1OCCCN1CCOCC1 [Gefitinib] + CC(C)n1c(=O)n(C)c2cnc3cc(F)c(-c4ccc(OCCCN5CCCCC5)nc4)cc3c21 [AZD1390]
U-698-M [1]; [6]
  Bliss excess: -0.0593
U-698-M [2]; [6]
  combination Emax: 0.354

## Cc1cc2ncnn2cc1Nc1ncc2c(n1)n(C1CCOCC1)c(=O)n2C [AZD7648] + C=CCn1c(=O)c2cnc(Nc3ccc(N4CCN(C)CC4)cc3)nc2n1-c1cccc(C(C)(C)O)n1 [AZD1775]
U-698-M [1]; [5]
  Bliss excess: -0.0156
U-698-M [2]; [5]
  combination Emax: 0.971

## CN(CCO)CC[C@H](CSc1ccccc1)Nc1ccc(S(=O)(=O)NC(=O)c2ccc(N3CCC([C@@H](O)c4ccccc4-c4ccc(Cl)cc4)CC3)cc2)cc1S(=O)(=O)C(F)(F)F [AZD4320] + C=CCn1c(=O)c2cnc(Nc3ccc(N4CCN(C)CC4)cc3)nc2n1-c1cccc(C(C)(C)O)n1 [AZD1775]
U-698-M [1]; [7]
  Bliss excess: -0.0221
U-698-M [2]; [7]
  combination Emax: 0.931

## Cc1cc2ncnn2cc1Nc1ncc2c(n1)n(C1CCOCC1)c(=O)n2C [AZD7648] + C[C@@H]1COCCN1C2=NC(=NC(=C2)C3(CC3)[S@](=N)(=O)C)C4=C5C=CNC5=NC=C4 [AZD6738]
U-698-M [1]; [8]
  Bliss excess: -0.0006
U-698-M [2]; [8]
  combination Emax: 0.939

## COc1nnc2ccc(N3CCC(c4ccc(OCCN5CCN(C)C(=O)[C@H]5C)cc4)CC3)nn12 [AZD5153] + CCN(CCO)CCCOc1ccc2c(Nc3cc(CC(=O)Nc4cccc(F)c4)[nH]n3)ncnc2c1 [AZD2811]
U-698-M [1]; [9]
  Bliss excess: -0.0563
U-698-M [2]; [9]
  combination Emax: 0.673

## COc1cccc(OCCCN)c1-c1cc(Nc2cnc(C#N)cn2)n[nH]1 [Prexasertib] + CN(C)CCCOc1ccc(-c2ccc3ncc4c(c3c2)n(C2CCOCC2)c(=O)n4C)cn1 [AZD0156]
U-698-M [1]; [9]
  Bliss excess: 0.0361
U-698-M [2]; first compound max 1 µM, partner max 1 µM, 7x7, may be a limit of the assay
  combination Emax: 1

## Cc1c2c(nn1C)CSCc1cc(n(C)n1)CSc1cc(c3ccccc3c1)OCCCc1c(C(=O)O)n(C)c3c-2c(Cl)ccc13 [AZD5991] + C[C@@H]1COCCN1C2=NC(=NC(=C2)C3(CC3)[S@](=N)(=O)C)C4=C5C=CNC5=NC=C4 [AZD6738]
U-698-M [1]; [3]
  Bliss excess: -0.0194
U-698-M [2]; first compound max 1 µM, partner max 10 µM, 7x7, may be a limit of the assay
  combination Emax: 1

## CCc1c2c(nc3ccc(O)cc13)-c1cc3c(c(=O)n1C2)COC(=O)[C@]3(O)CC [SN-38] + O=C(c1cc(Cc2n[nH]c(=O)c3ccccc23)ccc1F)N1CCN(C(=O)C2CC2)CC1 [Olaparib]
U-698-M [1]; [10]
  Bliss excess: 0.0095
U-698-M [2]; [10]
  combination Emax: 0.813

## COc1nnc2ccc(N3CCC(c4ccc(OCCN5CCN(C)C(=O)[C@H]5C)cc4)CC3)nn12 [AZD5153] + Cc1c2c(nn1C)CSCc1cc(n(C)n1)CSc1cc(c3ccccc3c1)OCCCc1c(C(=O)O)n(C)c3c-2c(Cl)ccc13 [AZD5991]
U-698-M [1]; [9]
  Bliss excess: -0.0271
U-698-M [2]; [9]
  combination Emax: 0.998

## COc1cccc(OCCCN)c1-c1cc(Nc2cnc(C#N)cn2)n[nH]1 [Prexasertib] + O=C(c1cc(Cc2n[nH]c(=O)c3ccccc23)ccc1F)N1CCN(C(=O)C2CC2)CC1 [Olaparib]
U-698-M [1]; [3]
  Bliss excess: -0.0433
U-698-M [2]; [3]
  combination Emax: 0.953

## COc1cc2c(cc1OCCCCCOc1cc3c(cc1OC)C(=O)N1C=C(C)C[C@H]1C=N3)N=C[C@@H]1CC(C)=CN1C2=O [SG3199] + O=C(c1cc(Cc2n[nH]c(=O)c3ccccc23)ccc1F)N1CCN(C(=O)C2CC2)CC1 [Olaparib]
U-698-M [1]; [11]
  Bliss excess: -0.0531
U-698-M [2]; [11]
  combination Emax: 0.0822

## CN(C)CCCOc1ccc(-c2ccc3ncc4c(c3c2)n(C2CCOCC2)c(=O)n4C)cn1 [AZD0156] + C=CCn1c(=O)c2cnc(Nc3ccc(N4CCN(C)CC4)cc3)nc2n1-c1cccc(C(C)(C)O)n1 [AZD1775]
U-698-M [1]; [7]
  Bliss excess: -0.0399
U-698-M [2]; [7]
  combination Emax: 0.984

## CN(CCO)CC[C@H](CSc1ccccc1)Nc1ccc(S(=O)(=O)NC(=O)c2ccc(N3CCC([C@@H](O)c4ccccc4-c4ccc(Cl)cc4)CC3)cc2)cc1S(=O)(=O)C(F)(F)F [AZD4320] + CS(=O)(=O)CCNCc1ccc(-c2ccc3ncnc(Nc4ccc(OCc5cccc(F)c5)c(Cl)c4)c3c2)o1 [Lapatinib]
U-698-M [1]; [3]
  Bliss excess: -0.0415
U-698-M [2]; [3]
  combination Emax: 0.551

## CN(CCO)CC[C@H](CSc1ccccc1)Nc1ccc(S(=O)(=O)NC(=O)c2ccc(N3CCC([C@@H](O)c4ccccc4-c4ccc(Cl)cc4)CC3)cc2)cc1S(=O)(=O)C(F)(F)F [AZD4320] + CCN(CCO)CCCOc1ccc2c(Nc3cc(CC(=O)Nc4cccc(F)c4)[nH]n3)ncnc2c1 [AZD2811]
U-698-M [1]; [9]
  Bliss excess: -0.0275
U-698-M [2]; [9]
  combination Emax: 0.138

## Cc1nc(Nc2ncc(C(=O)Nc3c(C)cccc3Cl)s2)cc(N2CCN(CCO)CC2)n1 [Dasatinib] + CC(=O)Nc1cccc(-n2c(=O)n(C3CC3)c(=O)c3c(Nc4ccc(I)cc4F)n(C)c(=O)c(C)c32)c1 [Trametinib]
U-698-M [1]; [12]
  Bliss excess: -0.0131
U-698-M [2]; [12]
  combination Emax: 0.432

## N#Cc1cnc(Nc2cc(NC[C@H]3CNCCO3)c(C(F)(F)F)cn2)cn1 [SRA737] + C=CCn1c(=O)c2cnc(Nc3ccc(N4CCN(C)CC4)cc3)nc2n1-c1cccc(C(C)(C)O)n1 [AZD1775]
U-698-M [1]; [5]
  Bliss excess: 0.0975
U-698-M [2]; first compound max 10 µM, partner max 1 µM, may be a limit of the assay
  combination Emax: 1

## CN(C)CCCOc1ccc(-c2ccc3ncc4c(c3c2)n(C2CCOCC2)c(=O)n4C)cn1 [AZD0156] + O=C(c1cc(Cc2n[nH]c(=O)c3ccccc23)ccc1F)N1CCN(C(=O)C2CC2)CC1 [Olaparib]
U-698-M [1]; [13]
  Bliss excess: 0.0153
U-698-M [2]; [13]
  combination Emax: 0.378

## O=C(c1cc(Cc2n[nH]c(=O)c3ccccc23)ccc1F)N1CCN(C(=O)C2CC2)CC1 [Olaparib] + COc1nnc2ccc(N3CCC(c4ccc(OCCN5CCN(C)C(=O)[C@H]5C)cc4)CC3)nn12 [AZD5153]
U-698-M [1]; [14]
  Bliss excess: -0.0374
U-698-M [2]; [14]
  combination Emax: 0.578

## C=CCn1c(=O)c2cnc(Nc3ccc(N4CCN(C)CC4)cc3)nc2n1-c1cccc(C(C)(C)O)n1 [AZD1775] + CCc1c2c(nc3ccc(O)cc13)-c1cc3c(c(=O)n1C2)COC(=O)[C@]3(O)CC [SN-38]
U-698-M [1]; first compound max 1 µM, partner max 0.3 µM
  Bliss excess: 0.0364
U-698-M [2]; first compound max 1 µM, partner max 0.3 µM, may be a limit of the assay
  combination Emax: 1

## NC1(C(=O)N[C@@H](CCO)c2ccc(Cl)cc2)CCN(c2ncnc3[nH]ccc23)CC1 [Capivasertib] + C[C@@H]1COCCN1C2=NC(=NC(=C2)C3(CC3)[S@](=N)(=O)C)C4=C5C=CNC5=NC=C4 [AZD6738]
U-698-M [1]; [8]
  Bliss excess: -0.0275
U-698-M [2]; [8]
  combination Emax: 0.909

## NC1(C(=O)N[C@@H](CCO)c2ccc(Cl)cc2)CCN(c2ncnc3[nH]ccc23)CC1 [Capivasertib] + CC(C)n1c(=O)n(C)c2cnc3cc(F)c(-c4ccc(OCCCN5CCCCC5)nc4)cc3c21 [AZD1390]
U-698-M [1]; [6]
  Bliss excess: 0.0024
U-698-M [2]; [6]
  combination Emax: 0.507

## CCN(CCO)CCCOc1ccc2c(Nc3cc(CC(=O)Nc4cccc(F)c4)[nH]n3)ncnc2c1 [AZD2811] + C=CCn1c(=O)c2cnc(Nc3ccc(N4CCN(C)CC4)cc3)nc2n1-c1cccc(C(C)(C)O)n1 [AZD1775]
U-698-M [1]; [7]
  Bliss excess: -0.0493
U-698-M [2]; [7]
  combination Emax: 0.956

## Cc1cc2ncnn2cc1Nc1ncc2c(n1)n(C1CCOCC1)c(=O)n2C [AZD7648] + COc1cc([C@@H]2c3cc4c(cc3[C@@H](O[C@@H]3O[C@@H]5CO[C@@H](C)O[C@H]5[C@H](O)[C@H]3O)[C@H]3COC(=O)[C@H]23)OCO4)cc(OC)c1O [Etoposide]
U-698-M [1]; [8]
  Bliss excess: 0.0866
U-698-M [2]; [8]
  combination Emax: 0.823

From the supplement of paper PMC11061612
